Type in all cases: in vivo, male Sprague-Dawley (SD) rats
The test system of assay [1] is Poly [ADP-ribose] polymerase 1 (PARP1). The assay is described as follows: Expression of PARP1 in BPH induced rat model. Conditions: vs BPH induced group; finasteride positive control. The method, then:
(§1) To assess the therapeutic effect of Chebulinic Acid (CA) and Chebulinic acid Enriched fraction (CAEF) on Benign Prostatic Hyperplasia (BPH), rat BPH model has been successfully generated by testosterone induction method. For model induction of BPH, Orchiectomy (Surgical removal of Testis) of rats was performed and then animals were left for ten days to recover. Now BPH was induced through the daily subcutaneous injections of Testosterone (5 mg/kg & 6.25 mg/ml in Corn Oil) at the inguinal region for 28 days continuously. While the treatment group received 7 days continuous administration of Testosterone and then Testosterone+CA (100 mg/kg B.W) or Testosterone+CAEF (100/200 mg/kg B.W.) or Testosterone+Finasteride (3 mg/kg) were administered orally once a day to these animals for next 21 days (FIG. 3). In another experiment the treatment group received 7 days continuous administration of Testosterone and then Testosterone+CAEF (100 mg/kg B.W.) administered orally once a day to these animals for next 4 weeks (group 1) 8 weeks (group 2) and 12 weeks (group 3) (FIG. 6). After that these animals were left for fasting overnight and sacrificed next day; their prostatic as well as other reproductive organs were dissected out. Portions of the prostatic ventral lobes were stored in 4% paraformaldehyde for histological and immuno-histochemical processing. […]

The test system of assay [2] is Testosterone-induced BPH rats. The assay is described as follows: Prostate weight and prostate weight index (PI) in testosterone-induced BPH rat model. Conditions: for Prostate weight index (PI): oral once a day for 21 days, CA 100 mg/kg, CAEF 100/200 mg/kg, Finasteride 3 mg/kg, vs Testosterone induced group (FIG. 3); for Prostatic weight: BPH induced rats, vs induced group (FIGS. 3 and 6). The protocol: 12-14-week-old (3 month) male Sprague-Dawley (SD) rats with initial body weights of 200-220 g were taken from National Animal Laboratory Centre, CSIR-Central drug research institute (CDRI), Lucknow. The animals were maintained in conditions in accordance with the rules and regulation of animal ethical committee. These rats were housed in a pathogen-free room at 23±2° C. and a relative humidity of 70% with an alternating 12 h light/dark cycle. To assess the therapeutic effect of Chebulinic Acid (CA) and Chebulinic acid Enriched fraction (CAEF) on Benign Prostatic Hyperplasia (BPH), rat BPH model has been successfully generated by testosterone induction method. For model induction of BPH, Orchiectomy (Surgical removal of Testis) of rats was performed and then animals were left for ten days to recover. Now BPH was induced through the daily subcutaneous injections of Testosterone (5 mg/kg & 6.25 mg/ml in Corn Oil) at the inguinal region for 28 days continuously. While the treatment group received 7 days continuous administration of Testosterone and then Testosterone+CA (100 mg/kg B.W) or Testosterone+CAEF (100/200 mg/kg B.W.) or Testosterone+Finasteride (3 mg/kg) were administered orally once a day to these animals for next 21 days (FIG. 3). In another experiment the treatment group received 7 days continuous administration of Testosterone and then Testosterone+CAEF (100 mg/kg B.W.) administered orally once a day to these animals for next 4 weeks (group 1) 8 weeks (group 2) and 12 weeks (group 3) (FIG. 6). After that these animals were left for fasting overnight and sacrificed next day; their prostatic as well as other reproductive organs were dissected out. Portions of the prostatic ventral lobes were stored in 4% paraformaldehyde for histological and immuno-histochemical processing. Half of the remaining prostate tissue was stored in RNA later and the other half was stored at −80° C. for subsequent biochemical and molecular experiments. Blood samples were obtained from the caudal vena cava and collected in serum separating tubes. Testosterone induced BPH animal models were sacrificed after the simultaneous treatment of 21 days. The intact prostate tissue was dissected and removed carefully from these sacrificed animals. Now the prostate weight (PW) was measured and the prostate index (PI) was calculated as PW (mg)/Body Weight (gm)×100. Data were expressed as the mean±SEM of four animals per group (n=4 per group). The values were analysed using one-way analysis of variance. Values were considered statistically significant at p<0.05.

The test system of assay [3] is Vascular endothelial growth factor (VEGF). The assay is described as follows: Expression of VEGF in BPH induced rat model. The following applies: within three weeks; vs non-treated induced BPH group; finasteride positive control.
A further assay deals with Procaspase 3. The assay is described as follows: Expression of Procaspase 3 in BPH induced rat model. The following applies: vs induced animal model; finasteride positive control.
The next assay concerns anti-apoptotic markers. The assay is described as follows: Anti-apoptotic markers in BPH rats (FIGS. 8-13, summary). The following applies: summary of FIGS. 8-13. The method, then: as §1
For another assay, the system named is PSA. Nature of the assay: PSA level in serum of BPH rats (ELISA). The following applies: summary statement, FIGS. 5 and 7.
Assay [4] concerns prostatic tissues in testosterone induced BPH rats. Nature of the assay: Histopathological examination (H&E) of prostate tissue in testosterone-induced BPH rats. Conditions: for Histological conditions / architecture of the prostate: BPH induced rats (FIG. 4).
Assay [5] is described as follows: Testosterone serum level in BPH rats. The following applies: BPH induced rats after treatment.
Assay [6] has as its system Prostate-Specific Antigen (PSA). The assay is described as follows: PSA expression in prostate tissue and serum of BPH rats (western blot). Conditions: three weeks, CA 100 mg/kg, CAEF 200 mg/kg, CAEF formulation 200 mg/kg. For orientation: A western blot detects proteins with antibodies after separation by electrophoresis.

This is an account of results in US12605418B2, “Chebulinic acid and its enriched fraction from the fruits of Terminalia chebula for treatment of benign prostatic hyperplasia (BPH) and its preparation thereof” (COUNCIL OF SCIENTIFIC AND INDUSTRIAL RESEARCH, priority 2020, dated 2026).

Each structure is given as a SMILES string. Entries after “also recorded” stand apart in the source; their conditions may differ.

For the compound `CC(C)(C)NC(=O)[C@H]1CC[C@H]2[C@@H]3CC[C@H]4NC(=O)C=C[C@]4(C)[C@H]3CC[C@]12C` [Finasteride], the “Expression of PARP1” value in [1] is reported as “reduced expression”. Further, the “Prostate weight index (PI)” value in assay [2] is given as “close to the 200 mg/kg CA/CAEF treated group”. For the same compound, the “Expression of VEGF” value in assay [3] is “reduced expression”. Moreover, the “Expression of Procaspase 3” value with Procaspase 3 was “decreased expression”.

In the case of `O=C(O)CC1C(=O)OC2C(COC(=O)c3cc(O)c(O)c(O)c3)OC(OC(=O)c3cc(O)c(O)c(O)c3)C(OC(=O)c3cc(O)c(O)c4c3C1C(O)C(=O)O4)C2OC(=O)c1cc(O)c(O)c(O)c1` [CA, 1.3,6-tri-O-galloyl-2,4-chebuloyl-beta-D-glucose], in the assay with anti-apoptotic markers, the Anti-apoptotic markers entry was “down-regulated”. In the assay on PSA, the “Level of PSA in sera” value is reported as “reduced level”. In addition, the “Prostatic weight index compared with normal control group” value in assay [2] (100/200 mg/kg dose (FIG. 3) and 100 mg/kg of CAEF (FIG. 6)) is on record as “quite close to the normal control group”. Besides, in [2], the Prostatic weight entry is “reduced significantly; also recorded: significant reduction” and the “Prostate weight index (PI)” value was “significantly decreased; also recorded: reduced significantly”. In addition, the Prostatic weight entry in assay [2] (listed as Chebulinic acid) is recorded as “decreased the prostate weight”. Also, the “Development of prostatic hyperplasia” value in assay [2] (testosterone-induced BPH rats) is listed as “significantly suppressed; also recorded: suppressed the development of prostatic hyperplasia considerably”. For the same compound, in assay [4], the “Histological conditions / architecture of the prostate” value is recorded as “improved histological conditions”. The “Histological conditions / architecture of the prostate” value in assay [4] (listed as Chebulinic acid) is “restored the altered histological architecture”. For the same compound, the “Glandular hyperplasia of the prostate (histopathological examination)” value in [4] (BPH rats) was “mild glandular hyperplasia”. For the same compound, the Prostatic lumen area entry in assay [4] (H&E, CA/CAEF 100/200 mg/kg, vs Induced BPH group (FIG. 4)) is given as “increased prostatic lumen areas significantly”. Also, the “Level of testosterone in sera” value in assay [5] is reported as “reduced level”. Besides, in [6], the “PSA expression in prostate tissue” value is “down-regulated” and the “PSA expression in serum” value was “down-regulated”.
